Results from patent US7129213B2, “Tripeptides and tripeptide derivatives for the treatment of neurodegenerative diseases” (Neurotell AG, priority 2002, dated 2006).
Read-outs that look alike come from different tables or passages of the source. Each block holds one compound with its values, some of them ahead of it.

Assays:
[1] = literature values; cited from earlier work
[2] = Metabolic stability in rat hepatocytes; type: in vitro ADME; conditions: male, Wistar, freshly isolated rat hepatocytes in suspension, 10^6 cells/ml, analysed over 24 h, read-out: T½ (converted)
From the text: Hepatocytes from adult male Wistar rats (IFFA Credo, L'Arbresle, France) were isolated by an in situ liver perfusion using collagenase (purchased from Sigma (St. Louis, Mo., U.S.A), according to a procedure described by Seglen (Preparation of isolated rat liver cell, Methods Cell Biol. 13, 29–83, 1976) and modified by Williams et al. (Rat hepatocyte primary culture. III. Improved dissociation and attachment techniques and the enhancement of survival by culture medium, in vitro 13: 809–817, 1977). After estimation of cell viability by the peripheral refractoriness of intact cells in phase contrast microscopy and the trypan blue test, freshly isolated hepatocytes were washed in basal William's medium E (WME) supplemented with 10% (v/v) fetal calf serum, 70 μM cortisol, 2 mM L-glutamine, 10 mM HEPES buffer, and 4 mM NaOH. […]
Each substance of each concentration will be analysed 10 times during 24 h (1 h, 2 h, 4 h, 6 h, 8 h, 10 h, 12 h, 16 h, 20 h, 24 h).

Compound: CC[C@H](C)[C@H](NC(=O)[C@H]([C@@H](C)CC)N(CC)CC)C(=O)N1CCC[C@H]1C(N)=O [N,N-Diethyl-Ile-Ile-ProNH2, N,N-diethyl-isoleucyl-isoleucyl-prolineamide]
PAMPA classification, predicted absorption after peroral application (PAMPA): medium to highly absorbed

Compound: C[C@]12CCC(=O)C=C1CC[C@@H]1[C@@H]2[C@@H](O)C[C@@]2(C)[C@H]1CC[C@]2(O)C(=O)CO [Hydrocortisone]
flux rates published by Kansy et al. [1]: 52%

Compound: thyreoliberin [TRH, reference compound]
Pampa Flux (%) Mean ± SEM (500 μM in Tris-buffer pH 7,4, diffusion time 16 h): <10%
PAMPA classification, predicted absorption after peroral application (classification by flux rate): weakly absorbed

Compound: CC[C@H](C)[C@H](NC(C)C)C(=O)N[C@H](C(=O)N1CCC[C@H]1C(N)=O)[C@@H](C)CC [N-Isopropyl-Ile-Ile-ProNH2]
PAMPA classification, predicted absorption after peroral application (PAMPA): medium to highly absorbed
half-life [2]: 2.6 h

Second part, led by results:

Pampa Flux (%) Mean ± SEM (PAMPA, 16 h, 500 μM, pH 7): 72 ± 2%
Compound: O=c1ccc2ccccc2o1 [Coumarin, reference compound]
flux rates published by Kansy et al. [1]: 66%

PAMPA classification, predicted absorption after peroral application (PAMPA): medium to highly absorbed
Compound: CC[C@H](C)[C@H](NC(=O)CN(CC)CC)C(=O)N1CCC[C@H]1C(N)=O [N,N-Diethyl-Gly-Ile-ProNH2]

Pampa Flux (%) Mean ± SEM (PAMPA, 16 h, 500 μM, pH 7): 0%
Compound: CC[N+](C)(C)Cc1ccccc1Br [Bretylium, reference compound]

PAMPA classification, predicted absorption after peroral application (PAMPA): medium to highly absorbed
Compound: CCNC(=O)[C@@H]1CCCN1C(=O)[C@H](Cc1ccccc1)NC(=O)[C@H]([C@@H](C)CC)N(CC)CC [N,N-Diethyl-Ile-Phe-ProNHEt, N,N-diethyl-isoleucyl-phenylalanyl-L-proline ethylamide]
